The values below come from patent publication US11306084B2, “Integrin antagonists” (Saint Louis University, priority 2016, dated 2022).

pIC50: −log10 of the molar value. Counter-ions that a name gives are not always drawn.

Experiment [1] concerns the target T1, Recombinant human integrin ανβ5 (Homo sapiens, UniProt P06756+P18084).
T1 construct: purchased R&D Systems 2528-AV
Kind of experiment: Solid Phase Receptor Assay (SPRA) for ανβ5 function. The format is binding. The conditions noted are these: for pIC50: plate-bound human vitronectin, read-out: αvβ5 SPRA IC50. Here is the method: D. Solid Phase Receptor Assay (SPRA) for ανβ5 Function
Wells were washed 3 times with 150 μL TBS+ and then 150 μL of blocking buffer (TBS+ with 1% bovine serum albumin, Sigma A7906) was added. The plate was incubated for 1 hr at 37° C. and then washed 3× with TBS+ buffer. […] Compounds were diluted to 20 μM and then 1 μL was added to each well of the plate according to a standard template with each sample repeated in triplicate. After incubation for two hours at room temperature, the plate was washed 3× with 150 μL of TBS+ buffer. To each well, 50 μl of biotinylated anti-αν antibody (R&D Systems, BAF1219) at 0.5 μg/mL in TBS+/0.1% BSA at 0.5 μg/mL were added and the plate covered and incubated for 1 hr at room temperature. After washing the plate 3 with 150 μL of TBS+ buffer, 50 μL of streptavidin-conjugated horseradish peroxidase (R&D Systems, DY998) diluted in TBS+ blocking buffer were added to the wells and the plate incubated for 20 min at room temperature. The plate was washed 3× with TBS+ buffer followed by 50 μL of TMB substrate (Sigma T4444) added to each well in the dark and the plate incubated for 5 min at room temperature. 25 μL of 1.0 M phosphoric acid was added as a stop solution and the plates were read at 450 nm using a Spectramax plate reader.

Experiment [2] addresses T2, Recombinant human integrin ανβ8 (Homo sapiens, UniProt P06756+P26012).
T2 construct: purchased R&D Systems 4135-AV
Kind of experiment: Solid Phase Receptor Assay (SPRA) for ανβ8 function. In kind it is binding. As to conditions: for pIC50: plate-bound human LAP, read-out: αvβ8 SPRA IC50. Here is the method:
F. Solid Phase Receptor Assay (SPRA) for ανβ8 Function
Wells were washed 3 times with 150 μL TBS+ and then 150 μL of blocking buffer (TBS+ with 1% bovine serum albumin, Sigma A7906) was added. The plate was incubated for 1 hr at 37° C. and then washed 3× with TBS+. […] Compounds were diluted to 20 μM and 1 μL was added to each well of the plate according to a standard template with each sample repeated in triplicate. After incubation for two hours at room temperature, the plate was washed 3× with 150 μL of TBS+. To each well, 50 μL of biotinylated anti-αν antibody (R&D Systems, BAF1219) at 1 μg/mL in TBS+/0.1% BSA were added and the plate was covered and incubated for 1 hr at room temperature. After washing the plate 3× with 150 μL. of TBS+ buffer, 50 μL of streptavidin-conjugated horseradish peroxidase (R&D Systems, DY998) diluted in TBS+ blocking buffer were added to the wells and the plate incubated for 20 min at room temperature. The plate was washed 3× with TBS+ followed by 50 μL of TMB substrate (Sigma T4444) added to each well in the dark and the plate incubated for 10 min at room temperature. 25 μL of 1.0 M phosphoric acid was added as a stop solution and the plates were read at 450 nm using a Spectramax plate reader.

T1 sequence (P06756 31-992 limits assumed): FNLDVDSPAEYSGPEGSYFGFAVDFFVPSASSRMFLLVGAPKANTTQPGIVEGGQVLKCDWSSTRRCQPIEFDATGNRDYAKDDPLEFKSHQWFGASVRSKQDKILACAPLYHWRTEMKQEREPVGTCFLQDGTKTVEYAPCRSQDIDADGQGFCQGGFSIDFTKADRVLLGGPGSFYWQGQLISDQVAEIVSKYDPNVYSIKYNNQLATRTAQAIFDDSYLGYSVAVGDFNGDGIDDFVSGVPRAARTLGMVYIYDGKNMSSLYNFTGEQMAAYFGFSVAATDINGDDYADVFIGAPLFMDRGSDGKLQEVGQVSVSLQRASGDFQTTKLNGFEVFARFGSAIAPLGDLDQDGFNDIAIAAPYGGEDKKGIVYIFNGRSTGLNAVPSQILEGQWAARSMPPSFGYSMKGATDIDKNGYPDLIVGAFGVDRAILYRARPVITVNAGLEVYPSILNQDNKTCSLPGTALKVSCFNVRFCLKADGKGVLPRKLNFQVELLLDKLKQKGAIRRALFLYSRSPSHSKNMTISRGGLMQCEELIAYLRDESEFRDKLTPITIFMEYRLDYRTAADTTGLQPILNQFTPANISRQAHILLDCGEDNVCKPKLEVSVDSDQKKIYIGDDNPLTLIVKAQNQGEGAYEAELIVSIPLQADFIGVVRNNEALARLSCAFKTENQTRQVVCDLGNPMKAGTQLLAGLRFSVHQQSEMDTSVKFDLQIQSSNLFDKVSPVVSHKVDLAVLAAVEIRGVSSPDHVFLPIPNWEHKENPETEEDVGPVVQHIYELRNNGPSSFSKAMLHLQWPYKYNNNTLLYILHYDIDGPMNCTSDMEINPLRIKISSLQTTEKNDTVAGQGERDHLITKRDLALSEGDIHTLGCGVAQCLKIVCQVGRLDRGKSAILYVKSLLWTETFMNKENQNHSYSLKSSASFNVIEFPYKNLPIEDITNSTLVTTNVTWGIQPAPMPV
T1 sequence (P18084 24-719 limits assumed): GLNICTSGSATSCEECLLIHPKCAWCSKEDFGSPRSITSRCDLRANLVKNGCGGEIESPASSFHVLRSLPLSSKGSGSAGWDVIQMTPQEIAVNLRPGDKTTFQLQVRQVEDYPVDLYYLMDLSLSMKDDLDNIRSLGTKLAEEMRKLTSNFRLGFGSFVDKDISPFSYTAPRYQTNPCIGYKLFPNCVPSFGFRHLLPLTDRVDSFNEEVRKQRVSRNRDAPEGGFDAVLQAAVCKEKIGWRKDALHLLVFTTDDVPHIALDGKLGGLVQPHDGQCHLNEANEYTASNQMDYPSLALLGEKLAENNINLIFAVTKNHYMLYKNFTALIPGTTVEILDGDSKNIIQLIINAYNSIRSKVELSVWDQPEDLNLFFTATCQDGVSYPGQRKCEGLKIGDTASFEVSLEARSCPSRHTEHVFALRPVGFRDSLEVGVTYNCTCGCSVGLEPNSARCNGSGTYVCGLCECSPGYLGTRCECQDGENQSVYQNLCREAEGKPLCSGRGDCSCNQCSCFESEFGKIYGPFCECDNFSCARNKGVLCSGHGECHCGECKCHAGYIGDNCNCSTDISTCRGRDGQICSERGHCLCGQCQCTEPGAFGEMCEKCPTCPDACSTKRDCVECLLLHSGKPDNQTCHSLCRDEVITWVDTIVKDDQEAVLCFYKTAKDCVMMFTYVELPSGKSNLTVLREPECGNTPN
T2 sequence (P06756 31-992 limits assumed): as the sequence (P06756 31-992 limits assumed) above
T2 sequence (P26012 43-684 limits assumed): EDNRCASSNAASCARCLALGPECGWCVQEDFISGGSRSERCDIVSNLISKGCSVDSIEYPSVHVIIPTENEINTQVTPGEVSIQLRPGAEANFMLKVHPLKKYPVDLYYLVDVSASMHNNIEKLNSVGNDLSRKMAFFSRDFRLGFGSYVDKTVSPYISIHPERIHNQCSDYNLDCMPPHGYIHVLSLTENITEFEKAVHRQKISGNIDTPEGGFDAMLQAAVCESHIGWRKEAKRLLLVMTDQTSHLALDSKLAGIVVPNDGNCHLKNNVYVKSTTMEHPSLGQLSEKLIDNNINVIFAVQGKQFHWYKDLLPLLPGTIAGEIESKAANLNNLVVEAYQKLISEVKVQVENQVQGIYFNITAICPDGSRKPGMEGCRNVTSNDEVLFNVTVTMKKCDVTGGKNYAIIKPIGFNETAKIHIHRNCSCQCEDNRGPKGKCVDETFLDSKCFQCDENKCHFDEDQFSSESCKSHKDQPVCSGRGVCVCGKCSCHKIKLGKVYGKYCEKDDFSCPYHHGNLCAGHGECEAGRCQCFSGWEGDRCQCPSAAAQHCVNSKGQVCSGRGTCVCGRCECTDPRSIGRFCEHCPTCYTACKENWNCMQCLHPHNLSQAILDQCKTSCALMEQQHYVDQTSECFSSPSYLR

Take `Cn1nc(CC(CC(=O)O)c2cc(F)cc(C(C)(C)C(F)(F)F)c2)cc1OCCc1ccc2c(n1)NCCC2` (stereo not shown) [Example 24, 3-(3-fluoro-5-(1,1,1-trifluoro-2-methylpropan-2-yl)phenyl)-4-(1-methyl-5-(2-(5,6,7,8-tetrahydro-1,8-naphthyridin-2-yl)ethoxy)-1H-pyrazol-3-yl)butanoic Acid]: the negative-log IC50 (pIC50) in experiment [1] was 9.70; in experiment [2] it was 7.05.

As to `Cn1nc(CC(CC(=O)O)c2cc(C(F)(F)F)cc(C(C)(C)C(F)(F)F)c2)cc1OCCc1ccc2c(n1)NCCC2` (stereo not shown) [Example 25, 4-[1-methyl-5-[2-(5,6,7,8-tetrahydro-1,8-naphthyridin-2-yl)ethoxy]pyrazol-3-yl]-3-[3-(2,2,2-trifluoro-1,1-dimethylethyl)-5-(trifluoromethyl)phenyl]butanoic Acid], the negative-log IC50 (pIC50) is 8.54 in experiment [1] and 7.92 in experiment [2].

For `Cn1nc(CC(CC(=O)O)c2cc(Br)cc(C(C)(C)C(F)(F)F)c2)cc1OCCc1ccc2c(n1)NCCC2` (stereo not shown) [Example 26, 3-[3-bromo-5-(2,2,2-trifluoro-1,1-dimethyl-ethyl)phenyl]-4-[1-methyl-5-[2-(5,6,7,8-tetrahydro-1,8-naphthyridin-2-yl)ethoxy]pyrazol-3-yl]butanoic Acid], the pIC50 in experiment [1] is 8.74; in experiment [2], 8.03.

Consider `Cn1nc(CC(CC(=O)O)c2cc(Cl)cc(C(C)(C)C(F)(F)F)c2)cc1OCCc1ccc2c(n1)NCCC2` (stereo not shown) [Example 27, 3-(3-chloro-5-(1,1,1-trifluoro-2-methylpropan-2-yl)phenyl)-4-(1-methyl-5-(2-(5,6,7,8-tetrahydro-1,8-naphthyridin-2-yl)ethoxy)-1H-pyrazol-3-yl)butanoic Acid], for which the results for the pIC50 in experiment [1] and in experiment [2] were 9.30 and 7.96, respectively.

Regarding `Cn1nc(CC(CC(=O)O)c2cc(C#N)cc(C(C)(C)C(F)(F)F)c2)cc1OCCc1ccc2c(n1)NCCC2` (stereo not shown) [Example 28, 3-[3-cyano-5-(2,2,2-trifluoro-1,1-dimethyl-ethyl)phenyl]-4-[1-methyl-5-[2-(5,6,7,8-tetrahydro-1,8-naphthyridin-2-yl)ethoxyl]pyrazol-3-yl]butanoic Acid Trifluoroacetate], the values for the negative logarithm of the IC50 (pIC50) in experiment [1] and in experiment [2] were 9.10 and 8.46, respectively.

Take `COCC1(c2cc(Cl)cc(C(CC(=O)O)Cc3cc(OCCc4ccc5c(n4)NCCC5)n(C)n3)c2)CCOCC1` (stereo not shown) [Example 29, 3-(3-chloro-5-(4-(methoxymethyl)tetrahydro-2H-pyran-4-yl)phenyl)-4-(1-methyl-5-(2-(5,6,7,8-tetrahydro-1,8-naphthyridin-2-yl)ethoxy)-1H-pyrazol-3-yl)butanoic Acid]: the values for the negative logarithm of the IC50 (pIC50) in experiment [1] and in experiment [2] were 9.30 and 8.02, respectively.

`COCC1(c2cc(F)cc(C(CC(=O)O)Cc3cc(OCCc4ccc5c(n4)NCCC5)n(C)n3)c2)CCOCC1` (stereo not shown) [Example 30, 3-(3-fluoro-5-(4-(methoxymethyl)tetrahydro-2H-pyran-4-yl)phenyl)-4-(1-methyl-5-(2-(5,6,7,8-tetrahydro-1,8-naphthyridin-2-yl)ethoxy)-1H-pyrazol-3-yl)butanoic Acid]: the values for the pIC50 in experiment [1] and in experiment [2] were 9.30 and 7.09, respectively.

In the case of `COCC1(c2cc(C(CC(=O)O)Cc3cc(OCCc4ccc5c(n4)NCCC5)n(C)n3)cc(C(F)(F)F)c2)CCOCC1` (stereo not shown) [Example 31, 3-(3-(4-(methoxymethyl)tetrahydro-2H-pyran-4-yl)-5-(trifluoromethyl)phenyl)-4-(1-methyl-5-(2-(5,6,7,8-tetrahydro-1,8-naphthyridin-2-yl)ethoxy)-1H-pyrazol-3-yl)butanoic Acid], the figures for the pIC50 in experiment [1] and in experiment [2] were 8.48 and 8.00, respectively.

Consider `COc1ccc(C(C)(C)C)cc1C(CC(=O)O)Cc1cc(OCCc2ccc3c(n2)NCCC3)n(C)n1` (stereo not shown) [Example 32, 3-(5-(tert-butyl)-2-methoxyphenyl)-4-(1-methyl-5-(2-(5,6,7,8-tetrahydro-1,8-naphthyridin-2-yl)ethoxy)-1H-pyrazol-3-yl)butanoic Acid], for which, in experiment [1], the “inhibitory activity at ανβ5 (in words)” value is given as “low activity” and the negative-log IC50 (pIC50) was 6.55. Besides, in experiment [2], the “inhibitory activity at ανβ8 (in words)” value is on record as “low activity” and the negative-log IC50 (pIC50) was 7.06.

`COc1c(C(CC(=O)O)Cc2cc(OCCc3ccc4c(n3)NCCC4)n(C)n2)cccc1C(C)(C)C` (stereo not shown) [Example 33, 3-(3-(tert-butyl)-2-methoxyphenyl)-4-(1-methyl-5-(2-(5,6,7,8-tetrahydro-1,8-naphthyridin-2-yl)ethoxy)-1H-pyrazol-3-yl)butanoic Acid]: the negative logarithm of the IC50 (pIC50) is 8.51 in experiment [1] and 6.01 in experiment [2].

For the compound `COc1cc(C(C)(C)C)ccc1C(CC(=O)O)Cc1cc(OCCc2ccc3c(n2)NCCC3)n(C)n1` (stereo not shown) [Example 34, 3-(4-(tert-butyl)-2-methoxyphenyl)-4-(1-methyl-5-(2-(5,6,7,8-tetrahydro-1,8-naphthyridin-2-yl)ethoxy)-1H-pyrazol-3-yl)butanoic Acid], the results for the pIC50 in experiment [1] and in experiment [2] were 8.64 and 7.38, respectively.

For the compound `Cn1nc(CC(CC(=O)O)c2cc(OC(F)(F)F)cc(C(C)(C)C)c2)cc1OCCc1ccc2c(n1)NCCC2` (stereo not shown) [Example 36, 3-[3-tert-butyl-5-(trifluoromethoxy)phenyl]-4-[1-methyl-5-[2-(5,6,7,8-tetrahydro-1,8-naphthyridin-2-yl)ethoxy]pyrazol-3-yl]butanoic Acid], the pIC50 in experiment [1] was 8.96; in experiment [2] it was 7.40.

Regarding `Cn1nc(CC(CC(=O)O)c2cc(C(C)(C)C)cc(C(F)(F)F)c2)cc1OCCc1ccc2c(n1)NCCC2` (stereo not shown) [Example 37, 3-[3-tert-butyl-5-(trifluoromethyl)phenyl]-4-[1-methyl-5-[2-(5,6,7,8-tetrahydro-1,8-naphthyridin-2-yl)ethoxyl]pyrazol-3-yl]butanoic Acid], the results for the pIC50 in experiment [1] and in experiment [2] were 8.21 and 7.74, respectively.

For the compound `Cn1nc(CC(CC(=O)O)c2cc(F)cc(C(C)(C)C)c2)cc1OCCc1ccc2c(n1)NCCC2` (stereo not shown) [Example 38, 3-(3-(tert-butyl)-5-fluorophenyl)-4-(1-methyl-5-(2-(5,6,7,8-tetrahydro-1,8-naphthyridin-2-yl)ethoxy)-1H-pyrazol-3-yl)butanoic Acid], the negative-log IC50 (pIC50) in experiment [1] is 9.52; in experiment [2] it was 6.85.

`COc1ccc(C(C)C)cc1C(CC(=O)O)Cc1cc(OCCc2ccc3c(n2)NCCC3)n(C)n1` (stereo not shown) [Example 39, 3-(5-isopropyl-2-methoxyphenyl)-4-(1-methyl-5-(2-(5,6,7,8-tetrahydro-1,8-naphthyridin-2-yl)ethoxy)-1H-pyrazol-3-yl)butanoic Acid Trifluoroacetate]: the negative-log IC50 (pIC50) was 7.02 in experiment [1] and 6.96 in experiment [2].

`CC(C)c1cc(Br)cc(C(CC(=O)O)Cc2cc(OCCc3ccc4c(n3)NCCC4)n(C)n2)c1` (stereo not shown) [Example 40, 3-(3-bromo-5-isopropyl-phenyl)-4-[1-methyl-5-[2-(5,6,7,8-tetrahydro-1,8-naphthyridin-2-yl)ethoxyl]pyrazol-3-yl]butanoic acid trifluoroacetate]: the pIC50 in experiment [1] was 8.96; in experiment [2] it was 8.05.

In the case of `CC(C)(C)c1cc(Br)cc(C(CC(=O)O)Cc2cc(OCCc3ccc4c(n3)NCCC4)n(CC(F)(F)F)n2)c1` (stereo not shown) [Example 41, 3-(3-bromo-5-tert-butyl-phenyl)-4-[5-[2-(5,6,7,8-tetrahydro-1,8-naphthyridin-2-yl)ethoxy]-1-(2,2,2-trifluoroethyl)pyrazol-3-yl]butanoic Acid Trifluoroacetate], the negative logarithm of the IC50 (pIC50) in experiment [1] was 8.66; in experiment [2], 8.16.

`Cn1nc(CC(CC(=O)O)c2cc(C(C)(C)C)ccc2O)cc1OCCc1ccc2c(n1)NCCC2` (stereo not shown) [Example 42, 3-(5-tert-butyl-2-hydroxy-phenyl)-4-[1-methyl-5-[2-(5,6,7,8-tetrahydro-1,8-naphthyridin-2-yl)ethoxyl]pyrazol-3-yl]butanoic Acid Sodium Salt]: the pIC50 was 8.18 in experiment [1] and 8.51 in experiment [2].

As for `Cn1nc(CC(CC(=O)O)c2cc(C(C)(C)C)ccc2Cl)cc1OCCc1ccc2c(n1)NCCC2` (stereo not shown) [Example 43, 3-(5-(tert-butyl)-2-chlorophenyl)-4-(1-methyl-5-(2-(5,6,7,8-tetrahydro-1,8-naphthyridin-2-yl)ethoxy)-1H-pyrazol-3-yl)butanoic Acid Trifluoroacetate], the results for the pIC50 in experiment [1] and in experiment [2] were 7.78 and 7.06, respectively.
